# Measured values from ChEMBL document CHEMBL2007661, “Compounds: GSK PKIS; Assays: UNC Frye lab” (2012).
# Several values for one entry are separate records, joined by “and”; a condition that tells them apart may be missing. Equal entries are not always repeated.
# Tests used:
# Details in all cases: at 1 µM
# [1] = target: T1, Serine/threonine-protein kinase TBK1 (Homo sapiens) (UniProt Q9UHD2)
# T1 sequence (whole entry): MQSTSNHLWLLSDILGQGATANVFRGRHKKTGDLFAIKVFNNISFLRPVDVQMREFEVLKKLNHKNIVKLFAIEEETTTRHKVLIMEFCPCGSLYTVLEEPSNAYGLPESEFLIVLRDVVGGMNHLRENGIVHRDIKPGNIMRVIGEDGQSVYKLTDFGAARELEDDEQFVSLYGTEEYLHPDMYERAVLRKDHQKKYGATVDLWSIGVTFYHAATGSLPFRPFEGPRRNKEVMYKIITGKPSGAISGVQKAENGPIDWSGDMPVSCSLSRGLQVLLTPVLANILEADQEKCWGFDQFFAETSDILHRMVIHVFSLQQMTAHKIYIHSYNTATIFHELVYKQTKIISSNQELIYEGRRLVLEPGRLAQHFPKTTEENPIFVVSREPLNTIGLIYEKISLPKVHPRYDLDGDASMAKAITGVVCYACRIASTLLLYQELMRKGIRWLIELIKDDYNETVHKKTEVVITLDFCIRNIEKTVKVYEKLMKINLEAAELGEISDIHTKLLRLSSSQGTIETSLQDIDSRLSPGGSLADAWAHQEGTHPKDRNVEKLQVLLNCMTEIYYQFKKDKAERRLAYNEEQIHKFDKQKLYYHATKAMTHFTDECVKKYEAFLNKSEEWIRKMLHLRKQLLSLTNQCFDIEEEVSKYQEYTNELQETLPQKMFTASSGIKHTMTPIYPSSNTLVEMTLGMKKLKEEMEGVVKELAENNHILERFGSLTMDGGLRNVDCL
# [2] = target: T2, Inhibitor of nuclear factor kappa-B kinase subunit beta (Homo sapiens) (UniProt O14920)
# T2 sequence (whole entry): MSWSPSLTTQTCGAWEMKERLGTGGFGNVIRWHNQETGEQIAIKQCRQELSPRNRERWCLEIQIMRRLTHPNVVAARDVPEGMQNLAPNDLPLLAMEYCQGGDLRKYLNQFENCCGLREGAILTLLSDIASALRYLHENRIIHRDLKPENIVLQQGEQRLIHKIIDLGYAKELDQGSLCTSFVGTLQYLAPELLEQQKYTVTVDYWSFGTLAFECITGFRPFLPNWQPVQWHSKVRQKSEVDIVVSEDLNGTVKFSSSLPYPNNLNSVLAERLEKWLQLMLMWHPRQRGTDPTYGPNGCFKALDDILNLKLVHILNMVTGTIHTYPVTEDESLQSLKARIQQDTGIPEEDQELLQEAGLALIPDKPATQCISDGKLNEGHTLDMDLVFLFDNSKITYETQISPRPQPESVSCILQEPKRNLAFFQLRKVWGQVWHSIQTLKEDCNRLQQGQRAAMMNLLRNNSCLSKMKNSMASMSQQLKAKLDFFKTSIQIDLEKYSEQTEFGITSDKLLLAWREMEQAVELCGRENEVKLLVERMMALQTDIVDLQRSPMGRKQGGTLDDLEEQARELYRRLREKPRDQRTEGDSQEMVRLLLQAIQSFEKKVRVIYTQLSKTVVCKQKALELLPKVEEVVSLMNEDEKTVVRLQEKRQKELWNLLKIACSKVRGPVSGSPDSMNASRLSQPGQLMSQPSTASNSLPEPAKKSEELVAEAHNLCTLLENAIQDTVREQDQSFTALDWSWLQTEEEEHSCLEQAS
# [3] = target: T3, Inhibitor of nuclear factor kappa-B kinase subunit alpha (Homo sapiens) (UniProt O15111)
# T3 sequence (whole entry): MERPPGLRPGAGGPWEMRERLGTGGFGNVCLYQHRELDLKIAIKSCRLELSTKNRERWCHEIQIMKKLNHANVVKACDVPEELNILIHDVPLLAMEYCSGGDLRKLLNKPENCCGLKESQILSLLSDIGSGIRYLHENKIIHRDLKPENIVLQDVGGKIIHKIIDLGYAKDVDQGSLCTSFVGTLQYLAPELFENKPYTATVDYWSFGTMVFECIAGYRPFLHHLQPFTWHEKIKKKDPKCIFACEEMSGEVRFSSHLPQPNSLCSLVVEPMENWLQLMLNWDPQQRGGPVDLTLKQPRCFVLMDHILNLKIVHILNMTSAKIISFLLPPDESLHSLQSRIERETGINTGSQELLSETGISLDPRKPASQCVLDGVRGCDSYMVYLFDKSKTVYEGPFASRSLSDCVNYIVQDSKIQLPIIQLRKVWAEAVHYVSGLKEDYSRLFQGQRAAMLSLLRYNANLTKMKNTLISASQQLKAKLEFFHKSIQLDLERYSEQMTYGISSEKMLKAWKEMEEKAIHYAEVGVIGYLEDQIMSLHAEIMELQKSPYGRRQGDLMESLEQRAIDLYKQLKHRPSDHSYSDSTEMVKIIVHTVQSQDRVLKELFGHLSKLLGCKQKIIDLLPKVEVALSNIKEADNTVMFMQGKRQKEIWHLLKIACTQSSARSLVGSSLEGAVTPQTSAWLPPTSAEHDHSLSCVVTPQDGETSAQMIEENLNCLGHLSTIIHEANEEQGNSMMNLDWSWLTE
inhibition [1],inhibition [2],inhibition [3],Structure (SMILES)
23% and 27%,-5% and -4%,4% and 3%,O=C1Nc2ccccc2/C1=C/Nc1ccc(-n2cncn2)cc1
0%,-5%,4%,CN1CCN(CCCNc2nc3ccc(Oc4ccc(NC(=O)Nc5cc(C(F)(F)F)ccc5F)cc4)cc3[nH]2)CC1
33% and 39%,2%,-8%,Cc1ccc(NC(=O)c2ccnc(N3CCCC3)c2)cc1-c1ccc(C(=O)NCC2CC2)cc1
10% and 14%,-9% and -7%,-1% and -2%,CCN(CC)Cc1ccc(Nc2nccc(-c3cnn4ncccc34)n2)cc1
37% and 33%,-4% and -2%,2% and 14%,O=C(Nc1n[nH]c2nc(-c3ccc(O)cc3)c(Br)cc12)C1CC1
1% and -2%,-2% and -3%,2%,CS(=O)(=O)CCNCc1nc(-c2ccc3ncnc(Nc4ccc(F)c(Cl)c4)c3c2)cs1
-3% and -6%,-5% and -4%,4% and 0%,Cc1cc(O)cc(C)c1/C=C/c1cncc(C(N)=O)c1
28% and 31%,-5% and -6%,7% and 19%,COc1cccc(-n2ncc3c(N/N=C/c4ccc(C(=O)NCCN(C)C)cc4)ncnc32)c1
-2% and 0%,4% and -2%,4% and 5%,CC1=C(C(=O)Nc2ccc3[nH]ncc3c2)C(c2ccc(F)cc2)NC(=O)N1 (configuration not stated)
86% and 87%,-8% and -7%,5% and 4%,O=C1Nc2ccc(C(=O)c3ccco3)cc2C1=Cc1cc(Cl)c(O)c(Cl)c1
1%,6% and 3%,-2% and -3%,ON=C1CCc2cc(-c3nc(C4CCNCC4)[nH]c3-c3ccncc3)ccc21
3%,0%,10% and 11%,O=C1Nc2ccc(I)cc2C1=Cc1cc(Br)c(O)c(Br)c1
-4% and -3%,-4% and -2%,6%,Fc1ccc(-c2cc(-c3c[nH]nc3-c3ccccn3)ccn2)cc1
31% and 38%,-4% and -1%,1% and 2%,NS(=O)(=O)c1cccc(N/C=C2\C(=O)Nc3ccccc32)c1
-2% and -5%,-5% and -2%,3% and 1%,Cc1cc(-c2ccccn2)cc(C)c1/C=C/c1cncc(-c2nn[nH]n2)c1
61% and 57%,-2%,-3%,NS(=O)(=O)c1ccc(N/N=C2\C(=O)Nc3ccc(-c4cnco4)cc32)cc1
3%,-4% and -5%,4% and 5%,Cc1cc(O)cc(C)c1/C=C/c1cncc(-c2nn[nH]n2)c1
9% and 7%,-6% and -2%,1%,O=C1NC(=O)C(c2ccccc2Cl)=C1Nc1cccc(O)c1
2% and 6%,-7% and -4%,-3% and 4%,CCS(=O)(=O)c1ccc(OC)c(Nc2ncc(-c3ccccc3Cl)o2)c1
3% and 1%,-3% and -2%,1% and 2%,FC(F)(F)c1cccc(-c2nn3ncccc3c2-c2ccnc(Nc3ccc4c(c3)OCCO4)n2)c1
18%,-3% and -2%,4%,CCCNc1cccc(-n2ncc3c(N/N=C/c4ccncc4)ncnc32)c1
-2% and 2%,-1% and 2%,1%,CCN(CC)S(=O)(=O)c1ccc(OC)c(Nc2ncc(-c3ccccc3)o2)c1

inhibition [1],inhibition [2],inhibition [3],Structure (SMILES)
-6% and -5%,-2% and -3%,3% and 7%,COc1ccc(CNC(=O)c2ccc(-c3cc(-c4nnc(C)o4)ccc3C)cc2)cc1
3% and 4%,-2% and 0%,2% and 4%,Cc1nnc(-c2ccc(C)c(-c3ccc(C(=O)NCc4ccc(Cl)cc4)cc3)c2)o1
-2% and 0%,-7% and 0%,2%,CC1=C(C(=O)Nc2cc(Cl)c3[nH]ncc3c2)C(c2ccc(C(F)(F)F)cc2)CC(=O)N1 (configuration not stated)
3% and 1%,-2% and -1%,1%,NC(=O)c1ccc2c(-c3ccnc(NCCCO)n3)c(-c3ccc(F)cc3)nn2c1
-6% and -7%,-3% and -4%,1%,CC(=O)NCc1cccc(C#Cc2cncnc2Nc2ccc(OCc3cccc(F)c3)c(Cl)c2)c1
1% and 2%,7% and -3%,2% and -8%,Nc1ccc(C#Cc2cncnc2Nc2ccc(OCc3cccc(F)c3)c(Cl)c2)cc1
-2% and 0%,-2% and -3%,15% and 18%,CCOc1nccc2c1nc(-c1nonc1N)n2CC
8% and 11%,-4% and 1%,10% and 11%,CCn1c(-c2nonc2N)nc2c(C#CC(C)(C)O)nc(OC[C@H](N)c3ccccc3)cc21
1% and 2%,-5% and 1%,2% and 3%,COc1ccc(-c2cc3c(N)ncnc3o2)cc1
0% and 2%,1% and 0%,-3%,N#Cc1c(NC(=O)c2ccccc2F)sc2c1CCCC2
-3% and -1%,0% and -1%,2% and -6%,CN(C)CCOc1ccc(-c2nc(-c3ccncc3)c(-c3ccc4c(c3)CC/C4=N\O)[nH]2)cc1
-6% and -7%,-2% and 0%,-6%,CC(=O)Nc1cccc(C#Cc2cncnc2Nc2ccc(OCc3cccc(F)c3)c(Cl)c2)c1
11% and 8%,3% and 0%,1%,CCS(=O)(=O)c1ccc(OC)c(Nc2ncc(-c3cccc(OC)c3)o2)c1
13% and 14%,-2%,1% and 4%,COc1cccc(-n2ncc3c(N/N=C/c4ccncc4)ncnc32)c1
0% and -2%,-3% and -4%,0%,CCc1nn2ncccc2c1-c1ccnc(NC2CC2)n1
3% and -1%,1% and -2%,-6% and -4%,CNC(=O)c1cncc(/C=C/c2c(C)cccc2C)c1
35% and 33%,-5% and -6%,5% and 3%,COc1cc2ncn(-c3cc(OCc4cccs4)c(C(N)=O)s3)c2cc1OC
10% and 5%,3% and 0%,-1% and 3%,COc1ccccc1Nc1ncc(-c2ccccc2)o1
24% and 20%,-3% and 3%,-7% and 2%,CCn1c(-c2nonc2N)nc2c(C#CC(C)(C)O)nc(CN3CCCC3)cc21
4% and 1%,1% and 4%,-3% and -4%,C[C@@H](Oc1cc(-n2cnc3ccc(OC[C@@H](O)CO)cc32)sc1C(N)=O)c1ccccc1Cl
-6%,-1% and -3%,0% and 1%,N#Cc1c(NC(=O)CN2CCOCC2)sc2c1CCCC2

Structure (SMILES),inhibition [1],inhibition [2],inhibition [3]
CNC(=O)Oc1cc(C)c(/C=C/c2cncc(C(=O)NC)c2)c(C)c1,-1%,1% and -3%,-3% and 5%
